Patent publication US9817000B2, “Method for identifying compounds that modulate a T2R taste receptor” (The Regents of the University of California, priority 1999, dated 2017)

Assays:
[1] = target: T1, mT2R5 coupling to gustducin (Mus musculus, UniProt Q9JKT4); test: Tastant-induced GTPγS binding to gustducin with insect cell membranes containing rho-mT2R5; assay type: biochemical
T1 construct: infectious Bacmid containing rhodopsin tagged mT2R5 (DBA/2-allele) was produced using the Bac-to-Bac system; rhodopsin tag (rho); made in house; host or cells: insect larval cells infected with recombinant Bacmid (Bac-to-Bac baculovirus system); membrane preparation
T1 sequence (Q9JKT4 1-300): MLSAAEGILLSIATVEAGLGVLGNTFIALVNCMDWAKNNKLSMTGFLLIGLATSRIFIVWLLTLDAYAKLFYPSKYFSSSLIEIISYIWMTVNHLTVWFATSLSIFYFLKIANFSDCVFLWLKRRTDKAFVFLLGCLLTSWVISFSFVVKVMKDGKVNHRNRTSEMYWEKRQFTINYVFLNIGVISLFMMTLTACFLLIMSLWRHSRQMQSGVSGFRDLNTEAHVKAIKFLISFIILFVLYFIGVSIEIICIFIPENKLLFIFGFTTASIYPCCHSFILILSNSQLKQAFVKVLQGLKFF
Protocol: To investigate the selectivity of T2R-G-protein coupling, mT2R5 was chosen for study because its activation by cycloheximide recapitulates mouse taste responses. Rho-tagged mT2R5 and gustducin were prepared using a baculovirus expression system. mT2R5-containing membranes were incubated with various purified G-proteins, including gustducin, and measured tastant-induced GTP-γS binding (Hoon et al., Biochem J 309:629-636 (1995)). Specifically, infectious Bacmid containing rhodopsin tagged mT2R5 (DBA/2-allele) was produced using the Bac-to-Bac system (Lifetechnologies, MD). Insect larval cells were infected for 60 h with recombinant Bacmid and membranes were prepared as described previously (Ryba and Tirindelli, J Biol Chem, 270:6757-6767 (1995)). Peripheral proteins were removed by treatment with 8 M urea and membranes were resuspended in 10 mM HEPES pH7.5, 1 mM EDTA and 1 mM DTT. The expression of rho-mT2R5 was assessed by Western blot using mAb B6-30 and quantitated by comparison with known amounts of rhodopsin. Approximately 300 pmol of rho-mT2R5 could be obtained from 2×10^8 infected cells. Gustducin and Gβ1γ8 heterodimers were isolated as described previously (Hoon et al., Biochem J 309:629-636 (1995); Ryba and Tirindelli, J Biol Chem, 270:6757-6767 (1995)). Receptor-catalyzed exchange of GDP for GTPγS on gustducin and other G-protein α-subunits was measured in the presence of 10 nM rho-mT2R5, 100 μM GDP, and 20 μM Gβ1γ8. All measurements were made at 15-minute time points, and reflect the initial rate of GTPγS binding.

[2] = target: T2, mT2R5 (Mus musculus, UniProt Q9JKT4); test: FURA-2 [Ca2+]i imaging in HEK-293 cells expressing Gα15 and rho-mT2R5 (taster, DBA/2 allele); assay type: cell-based; conditions: for [Ca2+]i response (FURA-2): 1.5 μM cycloheximide
T2 construct: expressed in transfected cells; host or cells: modified HEK-293 cells (PEAKrapid) expressing Gα15; pEAK10 vector
T2 sequence (Q9JKT4 1-300): T1 sequence (Q9JKT4 1-300)
From the text: In this system, receptor activation leads to increases in intracellular calcium [Ca2+]i, which can be monitored at the single cell level using the FURA-2 calcium-indicator dye (Tsien et al., Cell Calcium 6:145-157 (1985)). To test and optimize Gα15 coupling, two different GPCRs, a Gαi-coupled μ-opioid receptor (Reisine, Neuropharm. 34:463-472 (1995)) and a Gαq-coupled mGluR1 receptor (Masu et al., Nature 349:760-765 (1991)), were used. Transfection of these receptors into HEK-293 cell produced robust, agonist-selective, and Gα15-dependent Ca^2+ responses (FIG. 1).
A number of studies have shown that many GPCRs, in particular sensory receptors, require specific “chaperones” for maturation and targeting through the secretory pathway (Baker et al., Embo J 13:4886-4895 (1994); Dwyer et al., Cell 93:455-466 (1998)). Recently, Krautwurst et al. (Cell 95:917-926 (1998)) generated chimeric receptors consisting of the first 20 amino acids of rhodopsin and various rodent olfactory receptors. These were targeted to the plasma membrane and functioned as odorant receptors in HEK-293 cells. To determine whether rhodopsin sequences can also help target T2Rs to the plasma membra, rhodopsin-T2R chimeras (rho-T2Rs) were constructed. […] Similar results were obtained with 11 human and 16 rodent T2Rs (see below). To further enhance the level of T2R expression, rho-T2Rs were placed under the control of a strong EF-1α promoter, and introduced as episomal plasmids into modified HEK-293 cells expressing Gα15 (pEAKrapid cells).
A bridge overlap PCR extension technique was used to generate rho-T2R chimeras, which contain the first 39 amino acids of bovine rhodopsin in frame with human and rodent T2R coding sequences (Mehta and Singh, Biotechniques 26:1082-1086 (1999). All receptors were cloned into a pEAK10 mammalian expression vector (Edge Biosystems, MD). Modified HEK-293 cells (PEAK^rapid cells; Edge BioSystems, MD) were grown and maintained at 37° C. in UltraCulture medium (Bio Whittaker) supplemented with 5% fetal bovine serum, 100 μg/ml Gentamycin sulphate (Fisher), 1 μg/ml Amphotericin B and 2 mM GlutaMax I (Lifetechnologies). For transfection, cells were seeded onto matrigel coated 24-well culture plates or 35 mm recording chambers. After 24 h at 37° C., cells were washed in OptiMEM medium (Lifetechnologies) and transfected using LipofectAMINE reagent (Lifetechnologies). Transfection efficiencies were estimated by co-transfection of a GFP reporter plasmid, and were typically >70%. Immunofluoresence staining, and activity assays were performed 36-48 h after transfection.
Transfected cells were washed once in Hank's balanced salt solution with 1 mM sodium pyruvate and 10 mM HEPES, pH 7.4 (assay buffer), and loaded with 2 μM FURA-2 AM (Molecular Probes) for 1 h at room temperature. The loading solution was removed and cells were incubated in 200 μl of assay buffer for 1 h to allow the cleavage of the AM ester. For most experiments, 24-well tissue culture plates containing cells expressing a single rho-T2R were stimulated with 200 μl of a 2× tastant solution (see next section). [Ca^2+]i changes were monitored using a Nikon Diaphot 200 microscope equipped with a 10×/0.5 fluor objective with the TILL imaging system (T.I.L.L Photonics GmbH). Acquisition and analysis of the fluorescence images used TILL-Vision software. Generally, [Ca^2+]i was measured for 80-120 s by sequentially illuminating cells for 200 ms at 340 nm and 380 nm and monitoring the fluorescence emission at 510 nm using a cooled CCD camera. The F340/F380 ratio was analyzed to measure [Ca^2+]i.
Kinetics of activation and deactivation were measured using a bath perfusion system. Cells were seeded onto a 150 μl microperfusion chamber, and test solutions were pressure-ejected with a picospritzer apparatus (General Valve, Inc.). Flow-rate was adjusted to ensure complete exchange of the bath solution within 4-5 s. […]

| Structure (SMILES) | Kd [1] [µM] | coupling of mT2R5 to gustducin [1] | gustducin activation ([1]; 300 μM) | EC50 [2] [µM] | response of cells expressing mT2R5 [2] | response to successive applications [2] | threshold of response [2] [µM] | [Ca2+]i response (FURA-2) ([2]; absence of Gα15) | [Ca2+]i response (FURA-2) ([2]; with Gα15) | specificity of [Ca2+]i response ([2]; 5 μM) | [Ca2+]i changes in cells lacking receptor or Gα15 ([2]; 5000-fold higher concentration) | cells responding ([2]; entire camera field) [%] | response to prolonged exposure ([2]; exposure >10 s) | response under superfusion ([2]; micromolar concentrations) | latency of response ([2]; microperfusion chamber) [s] | receptor activation by tastant pulses ([2]; multiple pulses of 2 μM) | gustducin activation ([1]; 1 mM) | [Ca2+]i response to tastant ([2]; 5 mM) |
| --- | --- | --- | --- | --- | --- | --- | --- | --- | --- | --- | --- | --- | --- | --- | --- | --- | --- | --- |
| C[C@@H]1C[C@@H]([C@H](O)CC2CC(=O)NC(=O)C2)C(=O)[C@@H](C)C1 [cycloheximide] | 14.8 | exquisite cycloheximide-dependent coupling | activate gustducin | 0.5 | specifically responded | significantly reduced responses | ~0.2 | No increase in [Ca2+]i | robust Gα15 dependent responses | highly specific | did not trigger [Ca2+]i changes | > 70 | adaptation | robust transient responses | < 1 | robust receptor activation |  |  |
| CC[N+](CC)(CC(=O)Nc1c(C)cccc1C)Cc1ccccc1 [denatonium] |  |  |  |  |  |  |  |  |  |  |  |  |  |  |  |  | not | not observed |
